# Test results: patent EP0169785A1, “Use of 1,8,9-triacetoxy-anthracene as the active ingredient in the preparation of an antitumoral pharmaceutical compound” (CENTRE INTERNATIONAL DE RECHERCHES DERMATOLOGIQUES C.I.R.D. …, priority 1984, dated 1986)
# Assays:
# [1] = system: cellules leucémiques lymphocytiques P 388; experiment: Anti-tumour activity against intraperitoneally implanted P 388 lymphocytic leukaemia in mice (median survival time); format: in vivo, souris; conditions: for Temps médian de survie (en jours) Animaux testés T / T/C x 100: intraperitoneal; for Temps médian de survie (en jours) Animaux testés T: daily for 5 days after tumour implantation, controls C 9,9 days; for T/C x 100: active when ratio above 120
# Description: EXEMPLE 4 - Etude de l'activité anti-tumorale vis-à-vis des cellules leucémiques lymphocytiques P 388.
# Le principe du test est le suivant : On implante chez la souris, au jour zéro, une tumeur, par injection intrapéritonéale de 10^6 cellules tumorales dans 0,1 ml de fluide ascitique dilué. Le traitement consiste à administrer quotidiennement le produit étudié, par voie intrapéritonéale pendant les 5 jours suivant l'implantation de la tumeur.
# On considère que le produit est actif selon ce test, lorsque le rapport [formula] est supérieur à 120.
# [2] = system: cellules de mélanocarcinome B 16; experiment: Anti-tumour activity against intraperitoneally implanted B 16 melanocarcinoma in mice (median survival time); format: in vivo, souris; conditions: for Temps médian de survie (en jours) Animaux testés T / T/C X 100: intraperitoneal; for Temps médian de survie (en jours) Animaux testés T: daily for 9 days after tumour implantation, controls C 15,4 days; for T/C X 100: active when ratio above 125
# Description: EXEMPLE 5 - Etude de l'activité anti-tumorale vis-à-vis des cellules de mélanocarcinome B 16.
# Le principe du test est le suivant : On a implanté, chez la souris, par injection intrapériotonéale au jour 0, 0,5 ml d'un homogénéisat dilué (1/10) des cellules tumorales.
# Le traitement consiste à administrer le produit étudié, quotidiennement, par voie intrapéritonéale, pendant les 9 jours suivant l'implantation de la tumeur.
# Ou considère qu'un produit est actif, selon ce test, lorsque le rapport [formula] est supérieur à 125.
# [3] = Solubility (qualitative description); format: physicochemical; conditions: solvents named
compound,measurement,setting,value
"CC(=O)Oc1cccc2cc3cccc(OC(C)=O)c3c(OC(C)=O)c12 [composé de formule I, triacétoxy-1,8,9 anthracène]",Temps médian de survie (en jours) Animaux testés T,"[1]; 0,79 mg/kg","12,3 jours"
same,T/C x 100,"[1]; 0,79 mg/kg, daily for 5 days",124
same,Temps médian de survie (en jours) Animaux testés T,"[1]; 1,56 mg/kg","13,3 jours"
same,T/C x 100,"[1]; 1,56 mg/kg, daily for 5 days",134
same,Temps médian de survie (en jours) Animaux testés T,"[1]; 3,12 mg/kg",13 jours
same,T/C x 100,"[1]; 3,12 mg/kg, daily for 5 days",131
same,minimal effective dose,"[1]; Mus musculus, P388, ip, 120 h, P 388, intraperitoneal, daily for 5 days, dose at which the compound is active (T/C x 100 above 120), read-out: actif à la dose de",~0.8 mg/kg
same,dose optimale,"[1]; P 388, intraperitoneal, daily for 5 days","~1,56 mg/kg"
same,Temps médian de survie (en jours) Animaux testés T,"[2]; 0,75 mg/kg","19,7 jours"
same,T/C X 100,"[2]; 0,75 mg/kg, daily for 9 days",127
same,Temps médian de survie (en jours) Animaux testés T,[2]; 3 mg/kg,20 jours
same,T/C X 100,"[2]; 3 mg/kg, daily for 9 days",129
same,Temps médian de survie (en jours) Animaux testés T,"[2]; 1,5 mg/kg",23 jours
same,T/C X 100,"[2]; 1,5 mg/kg, daily for 9 days",149
same,dose optimale,"[2]; B 16, intraperitoneal, daily for 9 days","~1,50 mg/kg"
same,solubilité,[3],soluble notamment dans les alcools et l'acétone
